Measurements: patent US8637237B2, “Methods, compositions, and systems for the identification of species-specific or developmental stage-specific insecticides” (The University of North Carolina at Greensboro, priority 2003, dated 2014)
Blank lines part the entries; values can stand above or below the compound they belong to.

Target: T1, FXR (Rattus norvegicus, UniProt Q62735)
T1 sequence (Q62735 1-469): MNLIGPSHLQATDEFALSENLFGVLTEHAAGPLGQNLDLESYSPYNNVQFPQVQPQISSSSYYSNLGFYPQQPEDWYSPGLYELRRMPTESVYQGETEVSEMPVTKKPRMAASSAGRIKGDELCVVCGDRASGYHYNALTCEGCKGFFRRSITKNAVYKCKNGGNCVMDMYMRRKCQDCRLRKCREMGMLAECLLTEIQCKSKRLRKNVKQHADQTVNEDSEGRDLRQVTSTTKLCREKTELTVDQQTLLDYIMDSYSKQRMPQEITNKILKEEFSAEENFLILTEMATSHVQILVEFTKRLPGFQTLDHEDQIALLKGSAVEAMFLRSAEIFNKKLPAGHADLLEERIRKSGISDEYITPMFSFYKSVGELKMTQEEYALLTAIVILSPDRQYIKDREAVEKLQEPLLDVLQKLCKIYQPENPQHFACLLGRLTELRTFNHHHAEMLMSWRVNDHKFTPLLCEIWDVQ
T1 sequence (P28700 1-467 partner): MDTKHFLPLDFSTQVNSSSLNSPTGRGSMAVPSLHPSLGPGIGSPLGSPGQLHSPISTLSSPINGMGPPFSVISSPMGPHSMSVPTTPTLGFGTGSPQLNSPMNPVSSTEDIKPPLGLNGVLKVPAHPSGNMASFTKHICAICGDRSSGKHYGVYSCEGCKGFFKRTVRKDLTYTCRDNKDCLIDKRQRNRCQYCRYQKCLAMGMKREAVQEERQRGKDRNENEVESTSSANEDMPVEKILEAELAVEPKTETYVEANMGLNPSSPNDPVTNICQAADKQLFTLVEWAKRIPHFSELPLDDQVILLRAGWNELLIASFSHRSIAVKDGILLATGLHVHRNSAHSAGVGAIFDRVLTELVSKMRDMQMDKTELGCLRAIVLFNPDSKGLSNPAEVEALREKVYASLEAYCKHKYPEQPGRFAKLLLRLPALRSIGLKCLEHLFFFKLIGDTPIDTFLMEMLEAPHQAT
Assay: cell-based
Protocol: These experiments employed a mammalian cell culture system using Chinese hamster ovary cells (CHO) to evaluate the transcriptional function of Drosophila melanogaster EcR and USP using methods described previously (U.S. Patent Application Publication No: 2005/0049230; Henrich et al, 2003). Cells were seeded in 6-well polypropylene culture plates (Falcon) with 10^5 cells per well on the day prior to transfection. Transfection was subsequently performed using either calcium phosphate (Kitareewan et al., 1996, Mol. Biol. Cell, 7:1153-1196) or a GenePorter reagent (Gene Therapy Systems, Inc; San Diego, Calif.) following manufacturer's protocols. Each well received 1.25 μg of (EcRE)5-ΔMTV-CAT (five copies of the hsp27 EcRE inserted into an mouse mammary tumor virus (MTV) promoter upstream of the chloramphenicol acetyltransferase (CAT) gene) or (EcRE)5-ΔMTV-LUC (the same promoter attached to firefly luciferase), 1.25 μg of pCH111 (SV40 early promoter linked to the β-galactosidase gene) to normalize CAT activity, and 0.25 μg of each expression plasmid (EcR, FXR, RXR, USP) that was tested. The cells were incubated with plasmid DNA for seven hours and then washed with 1×PBS. Muristerone A (murA; Alexis Biochemicals) or 20-hydroxyecdysone (20E; Sigma) dissolved in ethanol to a concentration of 10 mM was diluted as necessary to the final assay concentration (FAC) in 2 ml of fresh incubation medium that was then applied to the cells. Similarly, JHIII (Sigma) was dissolved in dimethyl sulfoxide (DMSO) to a concentration of […] and diluted into the incubation medium to its final assay concentration (20, 40, 80, 160 μM). […] A corresponding volume of ethanol and DMSO were added to control cells for all experiments. For all experiments, the cells were allowed to incubate with the medium for 24 hours before collection and cell lysates were prepared by described methods (Kitareewan et al., 1996). Both β-galactosidase and CAT reporter activity were measured based on previously used methods (Kitareewan et al, 1996). Luciferase assays using luciferrin followed the specifications of the manufacturer.
Transcriptional activity, measured as ^14C-chloramphenicol counts (for measuring CAT activity) or relative luciferase activity (RLU) was quantified for each cell lysate. The counts were then normalized by adjusting for differences in β-galactosidase activity, since β-galactosidase expression is controlled by a constitutive promoter and provides an estimate of cell mass. Data were normalized as fold-induction based on differences in reporter gene activity between hormonally treated and control cells.
In these experiments, candidate juvenoids were tested for their ability to activate FXR mediated transcription by transfecting Chinese hamster ovary (CHO) cells using the FXR plasmid, mouse RXRα, and the ΔMTV-(EcRE)5-CAT reporter as described herein. An RXR-dependent CRBPII-CAT reporter plasmid was employed in parallel assays to discern activators specific for this receptor.

[1] = dose 20 μM, 1 = no increase over vehicle

SMILES: CC(C)(O)/C=C/C(=O)[C@](C)(O)[C@H]1[C@H](O)C[C@@]2(C)[C@@H]3CC=C4[C@@H](C=C(O)C(=O)C4(C)C)[C@]3(C)C(=O)C[C@]12C [cucurbitacin I]
IC50 (read-out: IC50, inhibition of farnesol-induced FXR activity, data not shown): ~0.05 µM

FXR-dependent activity, induction (dose not stated): ineffective
SMILES: COc1cc(/C=C/C(=O)CC(=O)/C=C/c2ccc(O)c(OC)c2)ccc1O [curcumin]

FXR-dependent activity, induction (1 mM): 4 fold
SMILES: CCCC(=O)Nc1ncnc2c1ncn2[C@@H]1O[C@@H]2COP(=O)(O)O[C@H]2[C@H]1OC(=O)CCC [dibutyryl cAMP]

SMILES: C[C@H]([C@H](O)CCC(C)(C)O)[C@H]1CC[C@@]2(O)C3=CC(=O)[C@@H]4C[C@@H](O)[C@@H](O)C[C@]4(C)[C@H]3CC[C@]12C [ecdysone]
FXR-dependent activity, induction (dose not stated): unresponsive

SMILES: C=CC(C)(O)CCCC/C=C(\C)CC(C)=O (stereo not shown) [echinolone]
FXR-dependent activity, maximal induction (maximal (highest non-cytotoxic) dose): 7 fold

FXR-dependent activity, induction (0.5 mM): inactive
SMILES: CC12CCC(C1)C(C)(C)C2=O (stereo not shown) [fenchone]

FXR-dependent activity, induction (0.5 mM): 5 fold
SMILES: CC12CCC(C1)C(C)(C)C2O (stereo not shown) [fenchyl alcohol]

SMILES: N#Cc1nn(-c2c(Cl)cc(C(F)(F)F)cc2Cl)c(N)c1[S+]([O-])C(F)(F)F (stereo not shown) [fipronil]
FXR-dependent activity, induction (25 μM): 20 fold

FXR-dependent CAT activity, induction (50 μM): unresponsive
SMILES: O=c1c(-c2ccc(O)cc2)coc2cc(O)cc(O)c12 [genistein]

SMILES: O=c1c(O)c(-c2ccc(O)c(O)c2)oc2c(O)c(O)cc(O)c12 [gossypetin]
FXR-dependent CAT activity, induction (50 μM): unresponsive

FXR-dependent activity, induction (dose not stated): ineffective
SMILES: O=c1[nH]cnc2nc[nH]c12 [hypoxanthine]

SMILES: O=[N+]([O-])NC1=NCCN1Cc1ccc(Cl)nc1 [imidacloprid]
FXR-dependent activity, induction (dose not stated): unaffected

SMILES: COP(=S)(OC)SCN1C(=O)c2ccccc2C1=O [imidan]
FXR-dependent activity, induction (dose not stated): inactive

SMILES: CC1=C[C@]23C(=O)[C@@H](C=C(COC(=O)c4ccccc4)[C@@H](O)[C@]2(O)[C@H]1OC(=O)c1ccccc1)[C@H]1[C@@H](C[C@H]3C)C1(C)C [ingenol-3,20-dibenzoate]
FXR-dependent activity, induction (10 μM): 5 fold | FXR ACTIVITY (fold-induction) (dose 10 μM): 5 fold-induction

SMILES: CC1=C[C@]23C(=O)[C@@H](C=C(CO)[C@@H](O)[C@]2(O)[C@H]1O)[C@H]1[C@@H](C[C@H]3C)C1(C)C [ingenol]
FXR-dependent activity, induction (dose not stated): inactive

FXR-dependent activity, induction (1 mM): no effect
SMILES: CC/C=C\C[C@H]1C(=O)CC[C@@H]1CC(=O)O [jasmonic acid]

SMILES: COC(=O)C1=CC[C@H]([C@H](C)CC(=O)CC(C)C)CC1 [juvabione]
RXR mediated transcription, increase (plant-derived JH agonists examined as FXR effectors): 3 fold

SMILES: C[C@@]12C=Cc3occc3[C@H]1CC[C@@]13C[C@@H](CC[C@H]12)[C@@](O)(CO)C3 [kahweol]
FXR ACTIVITY (fold-induction) [1]: 10 fold-induction

SMILES: O=C1C2(Cl)C3(Cl)C4(Cl)C(Cl)(Cl)C5(Cl)C3(Cl)C1(Cl)C5(Cl)C24Cl (stereo not shown) [kepone]
FXR-dependent CAT activity, induction (5 μM): 12 fold

SMILES: C=C(C)C1CCC2(C)OC2C1 (stereo not shown) [limonene oxide]
FXR-dependent activity, induction (400 μM): inactive

SMILES: Cl[C@H]1[C@H](Cl)[C@@H](Cl)[C@@H](Cl)[C@H](Cl)[C@H]1Cl [lindane]
FXR-dependent CAT activity, induction (5 μM): 5 fold

FXR-dependent activity, induction (0.5 mM): inactive
SMILES: CC1CCC(C(C)C)C(O)C1 (stereo not shown) [menthol]

FXR-dependent activity, induction (1 mM): 17 fold | FXR ACTIVITY (fold-induction) (dose 1000 μM): 18 fold-induction
SMILES: CC/C=C\CC1C(=O)CCC1CC(=O)OC (stereo not shown) [methyl jasmonate]

SMILES: C=C(C)[C@@]12O[C@@]3(c4ccccc4)O[C@@H]1[C@@H]1[C@@H]4O[C@]4(CO)[C@@H](O)[C@]4(O)C(=O)C(C)=C[C@H]4[C@@]1(O3)[C@H](C)[C@H]2OC(=O)/C=C/C=C/c1ccccc1 [mezerein]
FXR-dependent activity, induction (10 μM): 3 fold

SMILES: Clc1ccc(C(c2ccc(Cl)cc2)C(Cl)(Cl)Cl)cc1 [p,p-DDT]
FXR-dependent CAT activity, induction (5 μM): not

FXR ACTIVITY (fold-induction) (dose 300 μM, 1 = no increase over vehicle): 4 fold-induction | FXR-dependent activity, induction (dose not stated): 4 fold
SMILES: C=C(C)[C@@H]1CC=C(CO)CC1 [perillyl alchol, perillyl alcohol]

FXR-dependent activity, induction (400 μM): inert
SMILES: OCCc1ccccc1 [phenethyl alcohol]

SMILES: CC(C)=CC1C(C(=O)OCc2cccc(Oc3ccccc3)c2)C1(C)C (stereo not shown) [phenothrin]
FXR-dependent activity, induction (25 μM): 8 fold

SMILES: CCCC(=O)O[C@@H]1[C@@H](C)[C@@]2(O)[C@@H](C=C(CO)C[C@]3(O)C(=O)C(C)=C[C@@H]23)[C@@H]2C(C)(C)[C@]12OC(=O)CCC [phorbol 12,13-dibutyrate]
FXR-dependent activity, induction (10 μM): 2 fold

SMILES: CC1(C)[C@@H]2C[C@H]1[C@@](C)(O)[C@@H](O)C2 [pinane diol]
FXR-dependent activity, induction (0.5 mM): 5 fold

SMILES: OCc1ccc2c(c1)OCO2 [piperonyl alcohol]
FXR-dependent activity, induction (dose not stated): inactive

SMILES: O=C(O)c1ccc2c(c1)OCO2 [piperonylic acid]
FXR-dependent activity, induction (dose not stated): inactive

FXR-dependent activity, induction (dose not stated): 15 fold | EC50 (read-out: EC50 for FXR-dependent CAT activity): 150 µM
SMILES: COc1cc2c(cc1OC)OC(C)(C)C=C2 [precocene II]

SMILES: CC(COc1ccc(Oc2ccccc2)cc1)Oc1ccccn1 (stereo not shown) [pyriproxyfen]
FXR ACTIVITY (fold-induction) (final dose of 50 ∝M, 1 = induction less than 2-fold below cytotoxic doses): 9 fold-induction

SMILES: O=C(/C=C/c1ccc(O)c(O)c1)O[C@H](Cc1ccc(O)c(O)c1)C(=O)O [rosemarinic acid]
FXR-dependent activity, induction (dose not stated): ineffective

SMILES: C=C(C)[C@H]1Cc2c(ccc3c2O[C@@H]2COc4cc(OC)c(OC)cc4[C@@H]2C3=O)O1 [rotenone]
FXR ACTIVITY (fold-induction) [1]: 1 fold-induction | FXR-dependent activity, induction (dose not stated): inactive

SMILES: COc1cc2c(cc1OC)[C@@H]1C(=O)c3ccc(O)c(CC=C(C)C)c3O[C@@H]1CO2 [rotenonic acid]
FXR-dependent CAT activity, induction (20 μM): 20 fold | FXR ACTIVITY (fold-induction) [1]: 20 fold-induction

FXR-dependent CAT activity, induction (50 μM): 18 fold | FXR ACTIVITY (fold-induction) (dose 100 μM, 1 = no increase over vehicle): 10 fold-induction
SMILES: COc1cc(C2Oc3cc([C@H]4Oc5cc(O)cc(O)c5C(=O)[C@@H]4O)ccc3OC2CO)ccc1O (stereo partly shown) [silybin]

FXR-dependent CAT activity, induction (50 μM): 4 fold
SMILES: COc1ccc(-c2cc(=O)c3c(OC)c(OC)c(OC)c(OC)c3o2)cc1 [tangeretin]

FXR-dependent CAT activity, induction (50 μM): unresponsive
SMILES: O=C1c2c(O)cc(O)cc2O[C@H](c2ccc(O)c(O)c2)[C@H]1O [taxifolin]

SMILES: Clc1cc2c(cc1Cl)Oc1cc(Cl)c(Cl)cc1O2 [tetrachloro- dibenzo-p- dioxin, 2,3,7,8-tetrachlorodibenzo-p-dioxin]
FXR-dependent CAT activity, induction (100 nM): 15 fold | FXR ACTIVITY (fold-induction) (dose 0.1 μM): 15 fold-induction

FXR-dependent activity, induction (dose not stated): ineffective
SMILES: Cn1cnc2c1c(=O)[nH]c(=O)n2C [theobromine]

FXR-dependent activity, induction (dose not stated): ineffective
SMILES: O=c1[nH]c(=O)c2[nH]cnc2[nH]1 [xanthine]

SMILES: CC(=O)/C=C/C1C(C)=CCCC1(C)C (stereo not drawn) [α-ionone]
FXR ACTIVITY (fold-induction) (dose 150 μM): 10 fold-induction
